# Test results published in EP0812190B1 (priority 1993, dated 1995).
# Where a name gives a salt, the structure may show the parent alone. Read-outs that look alike come from different tables or passages of the source. Marks after values point to notes of the source that are not given here.
# Columns and labels:
# [1] = biological target: T1, MAO-B (Rattus norvegicus, UniProt P19643); assay: Rat brain MAO inhibition by propargylamines (Table IA), MAO-B; assay type: biochemical; design: in a rat brain preparation of MAO; from tissue; host or cells: rat brain preparation; conditions: ratio between epimers, MAO-B
# T1 sequence (P19643 1-520): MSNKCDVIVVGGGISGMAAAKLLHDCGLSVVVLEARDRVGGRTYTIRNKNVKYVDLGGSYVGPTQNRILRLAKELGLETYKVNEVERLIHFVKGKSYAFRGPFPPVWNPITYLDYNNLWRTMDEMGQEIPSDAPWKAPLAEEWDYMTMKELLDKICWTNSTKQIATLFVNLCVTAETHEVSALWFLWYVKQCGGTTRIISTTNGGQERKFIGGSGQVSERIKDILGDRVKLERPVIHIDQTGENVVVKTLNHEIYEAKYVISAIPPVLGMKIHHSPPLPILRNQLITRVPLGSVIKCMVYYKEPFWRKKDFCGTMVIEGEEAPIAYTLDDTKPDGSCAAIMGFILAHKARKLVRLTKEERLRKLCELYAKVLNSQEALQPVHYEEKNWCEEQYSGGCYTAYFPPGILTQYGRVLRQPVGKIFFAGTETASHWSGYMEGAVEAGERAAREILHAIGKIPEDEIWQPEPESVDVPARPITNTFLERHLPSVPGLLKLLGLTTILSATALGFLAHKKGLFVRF
# [2] = biological target: T2, MAO-A (Rattus norvegicus, UniProt P21396); assay: Rat brain MAO inhibition by propargylamines (Table IA), MAO-A; assay type: biochemical; design: MAO activity determined in brain and liver using the general technique described above; from tissue; host or cells: brain and liver of treated rats; conditions: ratio between epimers
# T2 sequence (P21396 1-526): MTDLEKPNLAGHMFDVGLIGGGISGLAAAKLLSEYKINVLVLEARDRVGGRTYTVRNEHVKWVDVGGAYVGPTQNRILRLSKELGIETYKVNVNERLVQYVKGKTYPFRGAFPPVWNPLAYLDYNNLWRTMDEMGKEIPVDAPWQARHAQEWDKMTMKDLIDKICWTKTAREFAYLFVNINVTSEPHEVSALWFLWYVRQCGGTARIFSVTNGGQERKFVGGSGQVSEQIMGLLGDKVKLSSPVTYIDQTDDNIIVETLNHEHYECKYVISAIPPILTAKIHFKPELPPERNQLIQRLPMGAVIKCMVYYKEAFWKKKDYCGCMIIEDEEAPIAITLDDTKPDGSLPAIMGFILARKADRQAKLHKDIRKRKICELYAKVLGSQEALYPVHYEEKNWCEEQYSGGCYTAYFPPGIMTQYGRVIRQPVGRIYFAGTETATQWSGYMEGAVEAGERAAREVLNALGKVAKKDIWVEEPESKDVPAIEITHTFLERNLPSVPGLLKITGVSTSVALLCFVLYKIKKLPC
# [3] = test system: neurological deficits; conditions: 300 mg/kg
# Description: TD50 (median toxic dose). This test measures neurological deficits by the rotorod ataxia test. A mouse is placed on a knurled rod rotating at 6 rpm. It is then determined whether a mouse has the ability to maintain its equilibrium and stay on the rod for one minute in each of three trials.
# [4] = test system: maximal electroshock seizures; assay: animal or person; conditions: for mice protected: 100 mg/kg; for ED50: Mus musculus, ip
# Text: (§1) The MES test is a classical model to indicate efficacy for partial and generalized seizures in humans. […] Some agents, however, that prevent seizure spread have the side effect of lowering seizure threshold. These agents therefore have both proconvulsive and anticonvulsive side effects.
# [5] = test system: minimal seizure threshold; conditions: 141 mg/kg
# Description: Timed Intravenous Infusion of Metrazol Test. This test measures the minimal seizure threshold of each animal. […] The time is then recorded (sec) from the start of infusion until the appearance of the first twitch (first focal seizure) and onset of clonus (clonic seizure).
# [6] = test system: minimal seizure threshold; conditions: literature (Kupferberg); cited from earlier work
# [7] = test system: crush injury of the optic nerve
# Description: • a) General. […] At short terms, metabolic measurements were monitored in terms of the mitochondrial NADH/NAD ratio, which depends on the activity of the electron transport system, and thus indicate levels of energy production. Changes in ability of the nerve to produce energy as a consequence of injury were determined by comparing NADH levels in response to artificial transient anoxic insult before and after the injury. • b) Surface fluorometry - reflectometry. Monitoring of the intramitochondrial NADH redox state is based on the fact that NADH, unlike the oxidized form NAD^+, fluoresces when illuminated […]. A flexible Y-shaped bundle of optic fibers (light guide) was used to transmit the light to and from the optic nerve. […] Changes in the reflected light were correlated with changes in tissue absorption caused by hemodynamic effects and with movements of the optic nerve secondary to alterations in arterial blood pressure and nerve volume. […] Animal utilization was in accord with the ARVO Resolution on the use of animals in research. Male Sprague-Dawley (SPD) rats weighing 300-400g were anesthetized with sodium pentobarbitone (50 mg/kg intraperitoneally). With the animal's head held in place by a head holder, a lateral canthotomy was performed under a binocular operating microscope and the conjuctiva was incised lateral to the cornea.
# [8] = test system: closed head injury; conditions: 24 h after trauma; 0.1 mg/kg i.p. at 0, 4, 8 and 12 h
# Description: (§2) Head trauma was induced in male rats under ether anesthesia by a well calibrated weight-drop device that falls over the exposed skull, covering the left cerebral hemisphere, 1-2 mm lateral to the midline, in the midcoronal plane.
# (§3) [R] (+)PAI Mesylate was dissolved in water. The rats were injected intraperitoneally at a dose of 0.1 mg/kg, 0, 4, 8 and 12 h after induction of head trauma. Control rats were treated with water at the same times.
# [9] = test system: haloperidol-induced catalepsy
# Description: (+)PAI mesylate, or racemic-PAI mesylate. All drugs were administered i.p. in a volume of 0.2 mL. Two hours later, haloperidol was injected s.c. at a dose of 6mg/kg in a volume of 0.1-0.2 mL. Motor coordination tests were made at 3 hours after giving haloperidol, that is, 5 hours after administering the presumed protective drugs.
# Motor coordination tests and rigidity were quantified according to three different parameters: (a) ability to walk the length of a horizontal rod, 80 cm-long; (b) ability co climb down, face down, a vertical rod, 80 cm-long; (c) duration of immobility in an unnatural sitting posture whereby the abdomen of the mouse is pressed against a "wall." Full performance as in haloperidol-untreated mice is given the score of 4 in each test, or a total of 12 in all tests. Poor performance is given a score from 1 to 3.
# [10] = test system: closed head injury; conditions: 0.1 mg/kg i.p. at 0, 4, 8 and 12 h after head trauma
# Description: as §2
# These criteria, referred to as the Neurological Severity Score (NSS), consist of a series of reflexes and motor functions. Points are given based on deficits in these criteria. At 24h the rats were reevaluated.
# as §3
# [11] = test system: α-MpT-induced hypokinesia; assay: Reversal of α-MpT-induced hypokinesia in rats; assay type: in vivo
# Description: The drug α-MpT is assumed to inhibit the formation of L-DOPA from tyrosine, and consequently the formation of dopamine itself. Lack of CNS dopamine is expressed as hypoactivity. Six month-old male Wistar rats (from Harlan Orkack, UK) were pretreated with saline, [R] […] Two hours later they received i.p. α-MpT at a dose of 100 mg/kg in 0.3-0.5 mL. Controls received saline. Following this, motor activity was recorded in a computerized activity cage for the duration of 10 hours. […] (+)PAI Mesylate at 2 mg/kg.
# [12] = test system: NMDA-induced cell death of cerebellum cells; assay: cells
# Description: Procedures: Cultures of mechanically dissociated neonatal rat cerebellum. […] The cerebella are then dissociated after 20-25 passages through a sterile 13 gauge, 10 cm long stainless steel needle attached to a 5 ml syringe with an inserted 45 µm pore size nylon sieve. The dissociated cells are centrifuged at 200g for 5 minutes, the supernatant discarded and the cells resuspended in enriched medium. The cell viability is determined by the trypan blue exclusion test. […] After 4 days in culture, the media are replaced with media containing the desired test compounds. Experiments are done in duplicate and repeated 2 or 3 times. […] Nerve cell survival is evaluated by phase contrast microscopy and trypan blue staining after 24 h.
# [13] = test system: maximal electroshock seizures; conditions: rats, p.o., 50 mg/kg
# Text: as §1
# [14] = Rattus norvegicus, 24 h, read-out: Percent Protection
# [15] = Rattus norvegicus, 24 h, read-out: Surviving Cells
compound,measurement,setting,value
N-Methyl-N-propargyl-1-aminotetralin [Example 2-MPAI],RELATIVE POTENCY +/- B,[1],0.2
same,RELATIVE POTENCY +/- A,[2],3
"C#CCN[C@H]1CCc2ccccc21 [[S](-)PAI Mesylate, reference compound]",acute neurotoxicity,[3]; mice,four out of four mice showed neurotoxicity and spasticity
same,mice protected,[4],three out of three
same,time to first focal seizure and onset of clonus,[5],reduces the time
NC(=O)N1c2ccccc2C=Cc2ccccc21 [carbamazepine],time to first focal seizure and onset of clonus,[6],do not show this effect
O=C1NC(=O)C(c2ccccc2)(c2ccccc2)N1 [phenytoin],time to first focal seizure and onset of clonus,[6],do not show this effect
"C#CCN[C@@H]1CCc2ccccc21.CS(=O)(=O)O [[R](+)PAI Mesylate, R-(+)-N-propargyl-1-aminoindan mesylate]",injury-induced reduction in energy production (NADH response to anoxia),[7]; 2 mg/kg i.p. immediately after injury,blocked the injury-induced reduction in energy production
same,CAP amplitude (Mean ± Std. Error.),"[7]; single injection 0.5 mg/kg immediately after injury, 14 days later",2104 ± 313 µV
same,% H2O in the brain,[8],82.1 ± 0.6 %
same,% of control,[9]; 3.0 mg/kg i.p.,60%
same,Score+SE,[9]; 3.0 mg/kg i.p.,6.4±0.5
same,% of control,[9]; 5.0 mg/kg i.p.,73%
same,Score+SE,[9]; 5.0 mg/kg i.p.,8.7±0.9
same,Score+SE,[9]; 10 mg/kg i.p.,11.3±0.3
same,% of control,"[9]; 10 mg/kg i.p., listed as [R] (+)PAI Mesylate, mesylate",94%
same,% of control,"[9]; 10 mg/kg i.p., listed as [R] (+)PAI mesylate, mesylate",≈ 94%
same,% of control,[9]; 15 mg/kg i.p.,90%
same,Score+SE,[9]; 15 mg/kg i.p.,10.8±0.5
same,Score+SE,"[9]; […] i.p. (free base), 2 h before haloperidol 6mg/kg s.c., max score 12",7.2±1
same,NSS 1 h,[10],16.7
same,NSS 24 h,[10],10.2
same,Δ NSS (1h - 24h),[10],6.5 ± 0.7
same,acute neurotoxicity,"[3]; mouse, in vivo",did not show any neurotoxicity
same,mice protected,[4],one out of three
same,"Score (total motor activity, 10 hours)","[11]; 2 mg/kg i.p., 2 h before α-MpT 100 mg/kg i.p., SE in the line below","14,132**"
same,% of control,"[11]; 2 mg/kg i.p., relative to saline control, listed as [R] (+)PAI Mesylate, mesylate",89%
same,% of control,"[11]; 2 mg/kg i.p., relative to saline control, mesylate",about 90%
same,% of control,[11]; 5 mg/kg i.p.,81%
same,"Score (total motor activity, 10 hours)",[11]; 5 mg/kg i.p.,"12,893*"
same,inhibition at 0.01 µM,[12]; [14],2%
same,inhibition at 10 µM,[12]; [14],27%
same,viability at 1 µM,[12]; [15],22%
same,viability at 10 µM,[12]; [15],37%
same,Percent Protection,"[12]; cerebellar cell cultures, 1440 min, 1 µM",12%
same,Surviving Cells,"[12]; rat, cerebellar cell cultures, 24 h, 0.01 µM",12% of untreated controls
"C#CCN[C@H]1CCc2ccccc21 [[S](-)PAI HCl, S-(-)-N-Propargyl-1-aminoindan hydrochloride, reference compound]",animals protected from seizures,[13],Four out of four
same,ED50,[4],57 mg/kg
"C#CCNC1CCCc2ccccc21 (racemic) [Example 1-PAT, N-propargyl-1-aminotetralin]",RELATIVE POTENCY R/S B,[1],0.5
same,RELATIVE POTENCY R/S A,[2],4
"C#CCN[C@@H]1CCc2ccccc21.Cl [[R](+)PAI HCl, R-(+)-N-Propargyl-1-aminoindan hydrochloride]",animals protected from seizures,[13],three out of four
same,ED50,[4],79 mg/kg
